Test results: patent US12091425B2 (AMGEN INC., priority 2016, dated 2024)
pIC50: −log10 of the molar value. Where two headings read alike, the source gives them in different places. Each block holds one molecule with its values, some of them ahead of it.

Columns and labels:
[1] = not given; remark: listed apart in the source
[2] = target: T1, Mcl-1/Bim interaction, recombinant human Mcl-1 (171-327) (Homo sapiens, UniProt Q07820); experiment: Cell free Mcl-1: Bim Affinity Assay (Mcl-1 HTRF); type: binding
T1 construct: made in house
Summary of the method: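 Read-out is time-resolved FRET after overnight incubation, using a biotin-labelled peptide from human Bim (51-76) as the binding partner; IC50 was derived from competition curves.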

[3] = tested on: OPM-2 human multiple myeloma cell line; experiment: Cell Viability Assay (OPM-2 10 FBS); type: cell-based; settings: Homo sapiens, OPM-2, 16 h, OPM-2 cells, 16 h, CellTiter-Glo
Summary of the method: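 IC50 from 4-parameter logistic fit of CellTiter-Glo luminescence. 3000 cells/well, 10% FBS medium, serial compound dilutions, 16 h, 37 °C/5% CO2; read 25 min post-reagent.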

[4] = TR-FRET, 0.1 nM Mcl-1 (171-327), 0.05 nM biotin-Bim (51-76)
[5] = cell free Mcl-1:Bim TR-FRET, recombinant human Mcl-1 (171-327)

T1 sequence (Q07820 171-327): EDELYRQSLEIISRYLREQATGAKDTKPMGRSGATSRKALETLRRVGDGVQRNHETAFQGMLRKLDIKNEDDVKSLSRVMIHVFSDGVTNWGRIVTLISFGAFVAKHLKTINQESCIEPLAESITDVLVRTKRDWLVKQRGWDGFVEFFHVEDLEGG

Molecule: C[C@@H]1CC=C[C@H](O)[C@]2(C)CC[C@H]2CN2C[C@@]3(CCCc4cc(Cl)ccc43)COc3ccc(cc32)C(=O)NS1(=O)=O
ring closure, yield after HPLC (from C[C@H](C/C=C/[C@H](O)[C@]1(C)CC[C@H]1CN1C[C@@]2(CCCc3cc(Cl)ccc32)COc2ccc(C(=O)O)cc21)S(N)(=O)=O, amide bond, 15-membered ring, EDC/DMAP, DCM, 2.0 mM, 16.0 h): 7.1%

Molecule: N#CC[C@@H]1CC/C=C/[C@H](O)[C@@H]2CC[C@H]2CN2C[C@@]3(CCCc4cc(Cl)ccc43)COc3ccc(cc32)C(=O)NS1(=O)=O
ring closure, yield after HPLC (from C=CC/C=C/[C@H](O)[C@@H]1CC[C@H]1CN1C[C@@]2(CCCc3cc(Cl)ccc32)COc2ccc(C(=O)NS(=O)(=O)[C@@H](CC#N)CCC=C)cc21, rcm bond, 16-membered ring, Hoveyda-Grubbs II (20 mol%), reduced pressure, AcOH, 2.89 mM, […]): 3.43%

Molecule: C=CCCC(C#N)S(=O)(=O)NC(=O)c1ccc2c(c1)N(C[C@@H]1CC[C@H]1[C@@H](O)/C=C/CCC)C[C@@]1(CCCc3cc(Cl)ccc31)CO2 (single isomer, unassigned)
ring closure, yield after HPLC (the molecule shown is the open-chain precursor, rcm bond, 16-membered ring, Hoveyda-Grubbs II (20 mol%), reduced pressure, AcOH, 2.9 mM, […]): 2.58%

Molecule: O=C1NS(=O)(=O)[C@H]2CCC[C@@H](C=C[C@H](O)[C@@H]3CC[C@H]3CN3C[C@@]4(CCCc5cc(Cl)ccc54)COc4ccc1cc43)C2 (single isomer, unassigned)
ring closure, yield after HPLC (from NS(=O)(=O)[C@H]1CCC[C@@H](/C=C/[C@H](O)[C@@H]2CC[C@H]2CN2C[C@@]3(CCCc4cc(Cl)ccc43)COc3ccc(C(=O)O)cc32)C1, amide bond, 16-membered ring, EDC/DMAP, DCM, 2.0 mM, 16.0 h): 4.7%

pIC50 [2, 4]: 9.20
pIC50 [3]: 6.76
Molecule: C[C@H]1[C@@H]2/C=C/[C@H](O)[C@@H]3CC[C@H]3CN3C[C@@]4(CCCc5cc(Cl)ccc54)COc4ccc(cc43)C(=O)NS(=O)(=O)[C@@H]1CCC2 [Example 112, (1S,3′R,6′R,7′S,8′E,10′S,14′R,28′S)-6-chloro-7′-hydroxy-28′-methyl-3,4-dihydro-2H,17′H-spiro[naphthalene-1,24′-[22]oxa[15]thia[1,16]diazapentacyclo[16.7.2.1^10,14.0^3,6.0^21,26]octacosa[8,18,20,26]tetraen]-17′-one 15′,15′-dioxide]
ring closure, isolated yield ([1]; from C[C@H]1[C@H](/C=C/[C@H](O)[C@@H]2CC[C@H]2CN2C[C@@]3(CCCc4cc(Cl)ccc43)COc3ccc(C(=O)O)cc32)CCC[C@H]1S(N)(=O)=O, amide bond, 16-membered ring, EDC/DMAP, DCM, 2.0 mM, 16.0 h): 21%

pIC50 [2, 4]: 7.96
Molecule: O=C1NS(=O)(=O)CC/C=C/[C@@H](O)[C@@H]2CC[C@H]2CN2C[C@@]3(CCCc4cc(Cl)ccc43)COc3ccc1cc32 [Example 221, (1S,3′R,6′R,7′R,8′E)-6-chloro-7′-hydroxy-3,4-dihydro-2H,14′H-spiro[naphthalene-1,21′-[19]oxa[12]thia[1,13]diazatetracyclo[13.7.2.0^3,6.0^18,23]tetracosa [8,15,17,23]tetraen]-14′-one 12′,12′-dioxide]
ring closure, isolated yield ([1]; from C=CCCS(=O)(=O)NC(=O)c1ccc2c(c1)N(C[C@@H]1CC[C@H]1[C@H](O)/C=C/CCC)C[C@@]1(CCCc3cc(Cl)ccc31)CO2, rcm bond, 15-membered ring, Hoveyda-Grubbs II (portionwise), AcOH, 5.2 mM): 48%

pIC50 [2, 4]: 7.48
pIC50 [3]: 4.67
Molecule: O=C1NS(=O)(=O)CCCC/C=C/[C@@H](O)[C@@H]2CC[C@H]2CN2C[C@@]3(CCCc4cc(Cl)ccc43)COc3ccc1cc32 [Example 227, (1S,3′R,6′R,7′R,8′E)-6-chloro-7′-hydroxy-3,4-dihydro-2H,16′H-spiro[naphthalene-1,23′-[21]oxa[14]thia[1,15]diazatetracyclo[15.7.2.0^3,6.0^20,25]hexacosa[8,17,19,25]tetraen]-16′-one 14′,14′-dioxide]
ring closure, isolated yield ([1]; from C=CCCCCS(=O)(=O)NC(=O)c1ccc2c(c1)N(C[C@@H]1CC[C@H]1[C@H](O)/C=C/CCC)C[C@@]1(CCCc3cc(Cl)ccc31)CO2, rcm bond, 17-membered ring, Hoveyda-Grubbs II, AcOH, 5.2 mM): 59%

pIC50 [2, 5]: 8.40
Molecule: CC[C@@H]1CC/C=C/C[C@H](O)[C@@H]2CC[C@H]2CN2C[C@@]3(CCCc4cc(Cl)ccc43)COc3ccc(cc32)C(=O)NS1(=O)=O [Example 553, (1S,3′R,6′R,7′S,9′E,13′R)-6-chloro-13′-ethyl-7′-hydroxy-3,4-dihydro-2H,16′H-spiro[naphthalene-1,23′-[21]oxa[14]thia[1,15]diazatetracyclo[15.7.2.0^3,6.0^20,25]hexacosa[9,17,19,25]tetraen]-16′-one 14′,14′-dioxide]
ring closure, isolated yield ([1]; from C=CCC[C@@H](CC)S(=O)(=O)NC(=O)c1ccc2c(c1)N(C[C@@H]1CC[C@H]1[C@@H](O)CC=C)C[C@@]1(CCCc3cc(Cl)ccc31)CO2, rcm bond, 17-membered ring, Hoveyda-Grubbs II (10 mol%), DCM, 1.4 mM, 45.0 °C, 6.0 h): 38%

pIC50 [2, 5]: 9.34
pIC50 [3]: 5.93
Molecule: C[C@@H]1C/C=C/[C@H](O)[C@@H]2CC[C@H]2CN2C[C@@]3(CCCc4cc(Cl)ccc43)COc3ccc(cc32)C(=O)NS1(=O)=O [Example 758, (1S,3′R,6′R,7′S,8′E,11′R)-6-chloro-7′-hydroxy-11′-methyl-3,4-dihydro-2H,14′H-spiro[naphthalene-1,21′-[19]oxa[12]thia[1,13]diazatetracyclo[13.7.2.0^3,6.0^18,23]tetracosa[8,15,17,23]tetraen]-14′-one 12′,12′-dioxide]
ring closure, isolated yield ([1]; from C=CC[C@@H](C)S(=O)(=O)NC(=O)c1ccc2c(c1)N(C[C@@H]1CC[C@H]1[C@@H](O)C=C)C[C@@]1(CCCc3cc(Cl)ccc31)CO2, rcm bond, 15-membered ring, Hoveyda-Grubbs II, DCM, 2.65 mM, 7.0 h): 23.8%

pIC50 [2, 5]: 8.21
pIC50 [3]: 4.63
Molecule: C[C@@H]1CC/C=C/[C@H](O)[C@@H]2CC[C@H]2CN2C[C@@]3(CCCc4nc(Cl)ccc43)COc3ccc(cc32)C(=O)NS1(=O)=O [Example 791, (3R,6R,7S,8E,12R,22S)-2′-chloro-7-hydroxy-12-methyl-7′,8′-dihydro-6′H,15H-spiro[20-oxa-13-thia-1,14-diazatetracyclo [14.7.2.0^3,6.0^19,24]pentacosa-8,16,18,24-tetraene-22,5′-quinolin]-15-one 13,13-dioxide]
ring closure, isolated yield ([1]; from C=CCC[C@@H](C)S(=O)(=O)NC(=O)c1ccc2c(c1)N(C[C@@H]1CC[C@H]1[C@@H](O)/C=C/CCC)C[C@@]1(CCCc3nc(Cl)ccc31)CO2, rcm bond, 16-membered ring, Hoveyda-Grubbs II, AcOH, 1.98 mM): 40%

pIC50 [2, 5]: 8.62
pIC50 [3]: 5.03
Molecule: CC[C@@H]1CC/C=C/[C@H](O)[C@@H]2CC[C@H]2CN2C[C@@]3(CCCc4nc(Cl)ccc43)COc3ccc(cc32)C(=O)NS1(=O)=O [Example 798, (3R,6R,7S,8E,12R,22S)-2′-chloro-12-ethyl-7-hydroxy-7′,8′-dihydro-6′H,15H-spiro[20-oxa-13-thia-1,14-diazatetracyclo[14.7.2.0^3,6.0^19,24]pentacosa-8,16,18,24-tetraene-22,5′-quinolin]-15-one 13,13-dioxide]
ring closure, isolated yield ([1]; from C=CCC[C@@H](CC)S(=O)(=O)NC(=O)c1ccc2c(c1)N(C[C@@H]1CC[C@H]1[C@@H](O)/C=C/CCC)C[C@@]1(CCCc3nc(Cl)ccc31)CO2, rcm bond, 16-membered ring, Hoveyda-Grubbs II, AcOH, 2.04 mM): 39%

Molecule: (1S,3′R,6′R,7′S,8′E)-6-chloro-7′-hydroxy-9′-bromo-3,4-dihydro-2H,15′H-spiro[naphthalene-1,22′-[20]oxa[13]thia[1,14]diazatetracyclo[14.7.2.0^3,6.0^19,24]pentacosa[8,16,18,24]tetraen]-15′-one 13′,13′-dioxide or (1S,3′R,6′R,7′R,8′E)-6-chloro-7′-hydroxy-9′-bromo-3,4-dihydro-2H,15′H-spiro[naphthalene-1,22′-[20]oxa[13]thia[1,14]diazatetracyclo[14.7.2.0^3,6.0^19,24]pentacosa[8,16,18,24]tetraen]-15′-one 13′,13′-dioxide
ring closure, yield after HPLC (amide bond, 16-membered ring, EDC/DMAP/TEA, DCM, 5.0 mM, […]): 13%

Molecule: (1S,3′R,6′R,7′S,8′E,11′S,12′R)-6-chloro-7′-hydroxy-12′-(2-methoxyethyl)-11′-methyl-3,4-dihydro-2H,15′H-spiro[naphthalene-1,22′-[20]oxa[13]thia[1,14]diazatetracyclo[14.7.2.0^3,6.0^19,24]pentacosa [8,16,18,24]tetraen]-15′-one 13′,13′-dioxide or [...] or (1S,3′R,6′R,7′S,8′E,11′R,12′R)-6-chloro-7′-hydroxy-12′-(2-methoxyethyl)-11′-methyl-3,4-dihydro-2H,15′H-spiro[naphthalene-1,22′-[20]oxa[13]thia[1,14]diazatetracyclo[14.7.2.0^3,6.0^19,24]pentacosa[8,16,18,24]tetraen]-15′-one 13′,13′-dioxide
ring closure, yield after HPLC (rcm bond, 16-membered ring, Hoveyda-Grubbs II, 1,2-dichloroethane, 3.67 mM, 50.0 °C): 8.2%

Molecule: (1S,3′R,6′R,7′S,8′E,12′R)-12′-(2-(tert-butylsulfonyl)ethyl)-6-chloro-7′-hydroxy-3,4-dihydro-2H,15′H-spiro[naphthalene-1,22′-[20]oxa[13]thia[1,14]diazatetracyclo[14.7.2.0^3,6.0^19,24]pentacosa[8,16,18,24]tetraen]-15′-one 13′,13′-dioxide or (1S,3′R,6′R,7′S,8′E,12′S)-12′-(2-(tert-butylsulfonyl)ethyl)-6-chloro-7′-hydroxy-3,4-dihydro-2H,15′H-spiro[naphthalene-1,22′-[20]oxa[13]thia [1,14]diazatetracyclo[14.7.2.0^3,6.0^19,24]pentacosa[8,16,18,24]tetraen]-15′-one 13′,13′-dioxide
ring closure, yield after HPLC (rcm bond, 16-membered ring, Hoveyda-Grubbs II (20 mol%), reduced pressure, AcOH, 2.9 mM, […]): 6.75%

Molecule: (1S,3′R,6′R,11′S)-6-chloro-11′-methyl-3,4-dihydro-2H,7′,14′H-spiro[naphthalene-1,21′-[19]oxa[12]thia[1,13]diazatetracyclo[13.7.2.0^3,6.0^18,23]tetracosa [15,17,23]triene]-7′,14′-dione 12′,12′-dioxide
ring closure, yield after HPLC (rcm bond, 15-membered ring): 4.8%
